Assay in all cases: NCI tumour cell line growth inhibition, 48 h
For test [1], the system named is HOP-62 NSCLC.
In test [2] the test system is K-562 leukemia.
Test [3] deals with SNB-75 CNS.
The test system of test [4] is NCI-H522 lung.
In test [5] the test system is COLO 205 colon.
The test system of test [6] is NCI/ADR-RES ovarian.
The subject of test [7] is SF-268 CNS.
For test [8], the system named is SF-295 CNS.

Values joined by “and” are separate entries in the source; they are usually repeats but may differ in a detail not shown here. Equal values may be shown once.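 Following 48 hours of exposure in 96-well plates, responses at five concentrations were used to interpolate endpoints linearly. GI50 = concentration required for 50% inhibition of growth. TGI is the concentration that stops growth completely.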

Consider `NC(=O)c1ccccc1NC(=O)c1ccccc1Cl`, for which the GI50 in test [1], in test [2], in test [3], in test [4], in test [5] and in test [6] was > 100 µM each time. The GI50 in test [7] and in test [8] was > 100 µM each time. The TGI in test [1], in test [2], in test [3], in test [4], in test [5] and in test [6] was > 100 µM throughout. The TGI in test [7] and in test [8] was > 100 µM throughout.

On to `COc1ccc(-c2cc(-c3cccc(NS(C)(=O)=O)c3)nc(N)c2C#N)cc1`, for which the GI50 in test [1] was 0.0689 µM; in test [2] it was 0.0541 µM; in test [3], 0.0316 µM; in test [4], 0.0164 µM; in test [5] it was 0.0747 µM; in test [6] it was 0.0603 µM. For the same compound, the GI50 in test [7] was 0.281 µM; in test [8], 0.0497 µM. For the same compound, the TGI in test [1] is 34.6 µM; in test [2], > 100 µM; in test [3], 0.769 µM; in test [4] it was 1.25 µM; in test [5], 0.607 µM; in test [6], 1.1 µM. Besides, the TGI was determined as 22 µM in test [7] and 2.87 µM in test [8].

On to `CC1(C)CC([P+](c2ccccc2)(c2ccccc2)c2ccccc2)=NN1`, for which the GI50 in test [1] is 7.4 µM; in test [2] it was 3.55 µM; in test [3] it was 5.3 µM; in test [4], 2.52 µM; in test [5], 1.44 µM; in test [6], > 100 µM. For the same compound, the figures for the GI50 in test [7] and in test [8] were 5.09 µM and 8.68 µM, respectively. The TGI in test [1] was > 100 µM; in test [2], > 100 µM; in test [3], > 100 µM; in test [4], > 100 µM; in test [5] it was 3.36 µM; in test [6] it was > 100 µM. Besides, the TGI in test [7] was > 100 µM; in test [8], 43.9 µM.

As to `Fc1ccc2c(c1)C1=C(CO2)C(c2ccc(Cl)cc2)NC(=S)N1` (stereo not given), the GI50 in test [2] is 30.4 µM; in test [3] it was 96.8 µM; in test [5], 31.3 µM; in test [6] it was 29.8 µM; in test [8], 15.6 µM. The TGI in test [2] is > 100 µM; in test [3] it was > 100 µM; in test [5], 90.9 µM; in test [6] it was 65.4 µM; in test [8] it was 47.3 µM.

As for `O=C1c2ccccc2-c2c1c1ccc([N+](=O)[O-])cc1c(=O)n2CCCNCCO`, the GI50 in test [1] was 0.0408 µM; in test [2], 0.0359 µM; in test [3] it was 0.372 µM; in test [4], 0.154 µM; in test [5] it was 1.05 µM; in test [6] it was 0.65 µM. For the same compound, the figures for the GI50 in test [7] and in test [8] were 0.148 µM and 0.0729 µM, respectively. The TGI in test [1] was determined as 0.544 µM; in test [2], 1.24 µM; in test [3], 1.34 µM; in test [4], 1.91 µM; in test [5], 2.81 µM; in test [6] it was 3.19 µM. Further, the values for the TGI in test [7] and in test [8] were 1.99 µM and 1.44 µM, respectively.

For the compound `COc1ccc(Cn2cc3c(c2-c2cc(OC)c(OC)c(OC)c2)CCc2cnoc2-3)cc1N`, the GI50 in test [1] was 0.0521 µM; in test [2] it was 0.0351 µM; in test [4], 0.018 µM; in test [5], 0.251 µM; in test [6], 0.0357 µM; in test [7] it was 0.0792 µM. The GI50 in test [8] is 0.0369 µM. In addition, the TGI in test [1] was > 100 µM; in test [2] it was > 100 µM; in test [4] it was 0.058 µM; in test [5], 0.789 µM; in test [6] it was > 100 µM; in test [7], > 100 µM. For the same compound, the TGI in test [8] was > 100 µM.

Regarding `Cn1cnc2c(F)c(Nc3ccc(Br)cc3F)c(C(=O)NOCCO)cc21`, the TGI in test [1], in test [2], in test [4], in test [6], in test [7] and in test [8] was > 100 µM throughout. Moreover, the GI50 in test [2] was 1.33 µM and 10.8 µM; in test [4], > 63.2 µM; in test [5] it was 0.0113 µM and 0.0236 µM; in test [6] it was > 100 µM; in test [7] it was > 2.05 µM and 50.5 µM; in test [8], > 67.7 µM.

As for `CCCCCCCCCCCCCCCCCCOc1ccccc1CC(=O)NCC[N+](C)(C)C`, the GI50 in test [1] was 2.32 µM; in test [2], 3.2 µM; in test [3] it was 1.98 µM; in test [4] it was 2.67 µM; in test [6], 22.6 µM; in test [7], 3.34 µM. Also, the GI50 in test [8] is 5.09 µM. Also, the TGI was 6.9 µM in test [1]; > 100 µM in test [2]; 8.9 µM in test [3]; 8.24 µM in test [4]; 62.6 µM in test [6]; 39.9 µM in test [7]. The same compound returned a TGI in test [8] of 38.9 µM.

Turning to `COc1cccc(N=N/C(=N\NC(=O)c2cc(Br)ccc2O)c2ccc(N(CCC#N)CCC#N)cc2OC)c1`, the GI50 in test [2] was 25.4 µg/mL; in test [3] it was 19.6 µg/mL; in test [4] it was 60.5 µg/mL; in test [5] it was 33.1 µg/mL; in test [6], 120 µg/mL; in test [7], 21.9 µg/mL. Also, the GI50 in test [8] is 52.6 µg/mL. The TGI was > 150 µg/mL in test [2]; 69.5 µg/mL in test [3]; > 150 µg/mL in test [4]; 106 µg/mL in test [5]; > 150 µg/mL in test [6]; 122 µg/mL in test [7]. In test [8], the TGI was > 150 µg/mL.

Consider `COc1ccc2c(c1)c(-c1ccc(-c3cn(C)c4ccc(OC)cc34)[nH]1)cn2C`, for which the GI50 is 10.1 µM in test [1]; 1.48 µM in test [2]; 2.25 µM in test [3]; 1.92 µM in test [5]; 3.39 µM in test [6]; 3.45 µM in test [7]. The GI50 in test [8] is 4.59 µM. Further, the TGI was determined as 33.5 µM in test [1]; 6.8 µM in test [2]; 6.26 µM in test [3]; 4.74 µM in test [5]; 20 µM in test [6]; 18.1 µM in test [7]. Besides, the TGI in test [8] was 45.7 µM.

As for `CCC1(NC(=O)c2cc(F)c(F)c(F)c2F)C(=O)NC(=O)N(C(C)C)C1=O` (stereo not given), the GI50 in test [1] was 58 µM; in test [2], 3.54 µM; in test [3] it was 21.3 µM; in test [5] it was 27.5 µM; in test [6], 31.8 µM; in test [7] it was 19.1 µM. Moreover, the GI50 in test [8] was 27.4 µM. The TGI in test [1] was > 100 µM; in test [2], 19.3 µM; in test [3], 45.9 µM; in test [5], > 100 µM; in test [6] it was 88.3 µM; in test [7] it was 37 µM. Moreover, in test [8], the TGI was 87.3 µM.

With `CC(C)C[C@H](NC(=O)[C@H](Cc1cccc2ccccc12)NS(=O)(=O)c1cccc2cccnc12)B(O)O`, the GI50 was 0.0511 µM in test [1]; 0.0094 µM in test [2]; 0.0288 µM in test [5]; 0.0614 µM and 0.0596 µM in test [8]. Also, the TGI in test [1] turned out to be 0.563 µM; in test [2], 0.163 µM; in test [4] it was 0.0352 µM; in test [5], 3.79 µM; in test [6] it was 17.7 µM.

Regarding `Cc1cc(N(CCCNc2ccnc3cc(Cl)ccc23)Cc2ccc3c(c2)OCO3)nc(N2CCCCC2)n1`, the GI50 in test [1] was 1.74 µM; in test [3] it was 1.47 µM; in test [4], 1.89 µM; in test [5], 1.66 µM; in test [6] it was 2.43 µM; in test [7], 2.33 µM. In addition, in test [8], the GI50 was 1.59 µM. Besides, the TGI was 5.17 µM in test [1]; 3.33 µM in test [3]; 4.19 µM in test [4]; 3.33 µM in test [5]; 8.03 µM in test [6]; 6.21 µM in test [7]. This compound yielded a TGI in test [8] of 3.39 µM.

Consider `C=C(CNC(=O)c1ccccc1)c1ccc(C(=O)Nc2ccccc2N)cc1`, for which the GI50 in test [1] is 63.7 µM; in test [2], 1.26 µM; in test [4], 2.6 µM; in test [5], 5.88 µM; in test [6], 2.35 µM; in test [7], 11.7 µM. Further, in test [8], the GI50 is 12.5 µM. Besides, the TGI is > 100 µM in test [1]; > 100 µM in test [2]; 10.1 µM in test [4]; > 100 µM in test [5]; > 100 µM in test [6]; > 100 µM in test [7]. Further, the TGI in test [8] is > 100 µM.

Take `Cc1cnccc1N=Nc1ccc(N(C)C)cc1`: the TGI is > 100 µM in test [1]; 76.7 µM in test [2]; 46.2 µM in test [3]; 26.1 µM in test [5]; 46.4 µM in test [6]; 56.5 µM in test [7]. Besides, the TGI in test [8] was 57.5 µM.

The values are drawn from PubChem BioAssay (NCI).
